Results from article PMC12029531, “Selenium in Action: Exploring the Biological Wonders of Hydroselenite Salts” (Molecules, 2025).

Assay: Water solubility by 1H-qNMR in D2O
Assay type: physicochemical
Details: 298 K

SMILES | Water Solubility [µg/mL]
Nc1ccc(S(=O)(=O)Nc2ncccn2)cc1 [AB-4, sulfadiazine] | 112
COc1cc(Cc2cnc(N)nc2N)cc(OC)c1OC [AB-2, trimethoprim] | 284
NNC(=O)c1ccncc1 [AB-5, isoniazid] | 5350
